Measurements: patent publication US8426174B2, “Method for the production of 2-butanol” (Butamax(TM) Advanced Biofuels LLC, priority 2007, dated 2013)
Read-outs that look alike come from different tables or passages of the source.

Columns and labels:
E. coli strain MG1655 = test system: E. coli strain MG1655
Procedure: For the stationary phase studies, E. coli strain MG1655 (ATCC #700926) was grown overnight in LB medium (Teknova, Half Moon Bay, Calif.) with shaking at 250 rpm at 42° C., 29° C. or 28° C. […] To these were added 10 μL of the overnight cultures and the tubes were immediately placed in shaking incubators at 42° C. or 28° C. or left on ice for 30 min. […] Then, 5 μL of the undiluted treated cultures were spotted on LB agar plates. Subsequent 10-fold serial dilutions of 10^−3, 10^−4, 10^−5 and 10^−6 of the exposed cultures were done by serial pipetting of 20 μL, starting with the 10^−2 dilution cultures, into 180 μL of LB medium in the microplate, using a multi-channel pipette. Prior to each transfer, the cultures were mixed by pipetting up and down six times. Each dilution (5 μL) was spotted onto an LB plate using a multi-channel pipette and allowed to soak into the plate. The plates were inverted and incubated overnight at 37° C. […] Survival of 0% was recorded when no colonies in the spots of the undiluted or any of the serial dilutions were observed.

E. coli (strain MG1655) = settings: for % Survival at 30° C. / % Survival at 37° C. / % Survival at 0° C.: 1 h; for concentration at which E. coli cells were killed: one hour
Procedure: (§1) Using overnight cultures or cells from plates, 30 mL cultures of the microorganisms to be tested were started in the following culture media: • E. coli—Miller's LB medium (Teknova, Half Moon Bay, Calif.): • L. plantarum PN0512—Lactobacilli MRS Broth (BD Diagnostic Systems, Sparks, Md.). The E. coli and L. plantarum cultures were grown at 37° C. aerobically with shaking until the cultures were in log phase and the OD600 was between 0.6 and 0.8. A 50 μL aliquot of each culture was removed for a time zero sample. The remainder of the cultures was divided into six 5 mL portions and placed in six small incubation flasks or tubes. […] The flasks or tubes were incubated at a desired temperature, aerobically without shaking for 1 h. After the incubation with one of the butanols, 2 μL from each of the flasks (and in addition 2 μL of the time zero sample of the culture before exposure to one of the butanols) were pipetted into the “head” wells of a 96 well (8×12) microtiter plate, each containing 198 μL of LB medium to give a 10^−2 dilution of the culture. Subsequently, 10^−3, 10^−4, 10^−5, and 10^−6 serial dilutions of the cultures were prepared as follows. The 10^−3 dilution was prepared by pipetting 20 μL of the sample from the head well into the 180 μL LB medium in the next well using a multi-channel pipette. This procedure was repeated 3 more times on successive wells to prepare the 10^−4, 10^−5, and 10^−6 dilutions. After each liquid transfer, the solution in the well was mixed by pipetting it up and down 10 times with the multi-channel pipetor. A 5 μL aliquot of each dilution was spotted onto an LB plate using a multi-channel pipette starting with the 10^−6 dilution, then the 10^−5, and so on working from more to less dilute without a change of tips. The spots were allowed to soak into the agar by leaving the lid of the plate slightly open for 15 to 30 min in a sterile transfer hood. The plates were covered, inverted, and incubated overnight at 37° C. The following day, the number of colonies in the spots were counted from the different dilutions. The number of living cells/mL in each of the original culture solutions from which the 2 μL was withdrawn was calculated and compared to the number of cells in the control untreated culture to determine the % of the cells surviving.

L. plantarum PN0512 = settings: for % Survival at 37° C. / % Survival at 23° C. / % Survival at 0° C. / concentration at which L. plantarum PN0512 cells were killed: one hour
Procedure: as §1

[1] = 1.0 % (w/v) 1-butanol, grown at 29° C.
[2] = 1.0 % (w/v) 1-butanol, grown at 42° C.
[3] = 1.5 % (w/v) 1-butanol, grown at 29° C.
[4] = 1.5 % (w/v) 1-butanol, grown at 42° C.
[5] = 2.0 % (w/v) 1-butanol, grown at 29° C.
[6] = 2.0 % (w/v) 1-butanol, grown at 42° C.
[7] = 3.0 % (w/v) 1-butanol, grown at 29° C.
[8] = 3.0 % (w/v) 1-butanol, grown at 42° C.
[9] = 4.0 % (w/v) 1-butanol, grown at 29° C.
[10] = 4.0 % (w/v) 1-butanol, grown at 42° C.
[11] = […] (w/v) 1-butanol, grown at 29° C.
[12] = […] (w/v) 1-butanol, grown at 42° C.

1-butanol
% survival after 30 min exposure at 28° C. (E. coli strain MG1655; 1.0 % (w/v) 1-butanol, grown at 28° C.): 100%
% survival after 30 min exposure at 0° C. (E. coli strain MG1655; [1]): 100%
% survival after 30 min exposure at 42° C. (E. coli strain MG1655; [1]): 100%
% survival after 30 min exposure at 0° C. (E. coli strain MG1655; [2]): 100%
% survival after 30 min exposure at 28° C. (E. coli strain MG1655; [2]): 100%
% survival after 30 min exposure at 42° C. (E. coli strain MG1655; [2]): 100%
% survival after 30 min exposure at 28° C. (E. coli strain MG1655; 1.5 % (w/v) 1-butanol, grown at 28° C.): 100%
% survival after 30 min exposure at 0° C. (E. coli strain MG1655; [3]): 100%
% survival after 30 min exposure at 42° C. (E. coli strain MG1655; [3]): 0.1%
% survival after 30 min exposure at 0° C. (E. coli strain MG1655; [4]): 100%
% survival after 30 min exposure at 28° C. (E. coli strain MG1655; [4]): 100%
% survival after 30 min exposure at 42° C. (E. coli strain MG1655; [4]): 0.1%
% survival after 30 min exposure at 28° C. (E. coli strain MG1655; 2.0 % (w/v) 1-butanol, grown at 28° C.): 100%
% survival after 30 min exposure at 0° C. (E. coli strain MG1655; [5]): 100%
% survival after 30 min exposure at 42° C. (E. coli strain MG1655; [5]): 0.1%
% survival after 30 min exposure at 0° C. (E. coli strain MG1655; [6]): 100%
% survival after 30 min exposure at 28° C. (E. coli strain MG1655; [6]): 100%
% survival after 30 min exposure at 42° C. (E. coli strain MG1655; [6]): 0%
% survival after 30 min exposure at 28° C. (E. coli strain MG1655; 3.0 % (w/v) 1-butanol, grown at 28° C.): 100%
% survival after 30 min exposure at 0° C. (E. coli strain MG1655; [7]): 100%
% survival after 30 min exposure at 42° C. (E. coli strain MG1655; [7]): 0%
% survival after 30 min exposure at 0° C. (E. coli strain MG1655; [8]): 100%
% survival after 30 min exposure at 28° C. (E. coli strain MG1655; [8]): 100%
% survival after 30 min exposure at 42° C. (E. coli strain MG1655; [8]): 0%
% survival after 30 min exposure at 28° C. (E. coli strain MG1655; 4.0 % (w/v) 1-butanol, grown at 28° C.): 0.0003%
% survival after 30 min exposure at 0° C. (E. coli strain MG1655; [9]): 100%
% survival after 30 min exposure at 42° C. (E. coli strain MG1655; [9]): 0%
% survival after 30 min exposure at 0° C. (E. coli strain MG1655; [10]): 100%
% survival after 30 min exposure at 28° C. (E. coli strain MG1655; [10]): 0.0004%
% survival after 30 min exposure at 42° C. (E. coli strain MG1655; [10]): 0%
% survival after 30 min exposure at 0° C. (E. coli strain MG1655; 5.0 % (w/v) 1-butanol, grown at 29° C.): 1%
% survival after 30 min exposure at 0° C. (E. coli strain MG1655; 5.0 % (w/v) 1-butanol, grown at 42° C.): 1%
% survival after 30 min exposure at 0° C. (E. coli strain MG1655; 6.0 % (w/v) 1-butanol, grown at 29° C.): 0.001%
% survival after 30 min exposure at 0° C. (E. coli strain MG1655; 6.0 % (w/v) 1-butanol, grown at 42° C.): 0%
% survival after 30 min exposure at 0° C. (E. coli strain MG1655; 7.0 % (w/v) 1-butanol, grown at 29° C.): 0%
% survival after 30 min exposure at 0° C. (E. coli strain MG1655; 7.0 % (w/v) 1-butanol, grown at 42° C.): 0%
% survival after 30 min exposure at 0° C. (E. coli strain MG1655; [11]): 100%
% survival after 30 min exposure at 42° C. (E. coli strain MG1655; [11]): 0%
% survival after 30 min exposure at 0° C. (E. coli strain MG1655; [12]): 100%
% survival after 30 min exposure at 42° C. (E. coli strain MG1655; [12]): 0%
concentration with no toxic effect on E. coli cells (E. coli (strain MG1655); 0° C., one hour treatment): ≤ 4.5 % v/v
% Survival at 30° C. (E. coli (strain MG1655); 1 % v/v 1-butanol): 100%
% Survival at 37° C. (E. coli (strain MG1655); 1 % v/v 1-butanol): 72%
% Survival at 30° C. (E. coli (strain MG1655); 1.5 % v/v 1-butanol): 100%
% Survival at 37° C. (E. coli (strain MG1655); 1.5 % v/v 1-butanol): 20%
% Survival at 30° C. (E. coli (strain MG1655); 2 % v/v 1-butanol): 100%
% Survival at 37° C. (E. coli (strain MG1655); 2 % v/v 1-butanol): 0%
% Survival at 0° C. (E. coli (strain MG1655); 3 % v/v 1-butanol): 100%
% Survival at 30° C. (E. coli (strain MG1655); 3 % v/v 1-butanol): 0%
% Survival at 37° C. (E. coli (strain MG1655); 3 % v/v 1-butanol): 0%
% Survival at 0° C. (E. coli (strain MG1655); 4 % v/v 1-butanol): 100%
concentration at which E. coli cells were killed (E. coli (strain MG1655); 30° C.): 3 % v/v
concentration at which E. coli cells were killed (E. coli (strain MG1655); 37° C.): 2 % v/v
% Survival at 0° C. (E. coli (strain MG1655); […] v/v 1-butanol): 100%
% Survival at 37° C. (E. coli (strain MG1655); […] v/v 1-butanol): 0%
concentration with no toxic effect on L. plantarum PN0512 cells (L. plantarum PN0512; 0° C., one hour treatment): ≤ 4.5 % v/v
% Survival at 37° C. (L. plantarum PN0512; 1 % v/v 1-butanol): 80%
% Survival at 37° C. (L. plantarum PN0512; 1.5 % v/v 1-butanol): 58%
% Survival at 23° C. (L. plantarum PN0512; 2 % v/v 1-butanol): 100%
% Survival at 37° C. (L. plantarum PN0512; 2 % v/v 1-butanol): 29%
% Survival at 0° C. (L. plantarum PN0512; 3 % v/v 1-butanol): 100%
% Survival at 23° C. (L. plantarum PN0512; 3 % v/v 1-butanol): 82%
% Survival at 37° C. (L. plantarum PN0512; 3 % v/v 1-butanol): 0%
% Survival at 0° C. (L. plantarum PN0512; 4 % v/v 1-butanol): 100%
% Survival at 23° C. (L. plantarum PN0512; 4 % v/v 1-butanol): 0%
% Survival at 0° C. (L. plantarum PN0512; 5 % v/v 1-butanol): 0%
% Survival at 0° C. (L. plantarum PN0512; 5.5 % v/v 1-butanol): 0%
concentration at which L. plantarum PN0512 cells were killed (L. plantarum PN0512; 23° C.): 3.5 % v/v
concentration at which L. plantarum PN0512 cells were killed (L. plantarum PN0512; 37° C.): 2.5 % v/v
% Survival at 0° C. (L. plantarum PN0512; […] v/v 1-butanol): 100%
